Results from ChEMBL document CHEMBL1649479, “In vitro activity of doripenem against Burkholderia pseudomallei” (2009).
In brackets after ≈: the same amount, converted by molar mass.

What was measured:
Format in all cases: functional
Pseudomonas aeruginosa = assay: Antimicrobial activity against Pseudomonas aeruginosa ATCC 27853 by agar dilution method
[1] = test system: Burkholderia pseudomallei; assay: Antimicrobial activity against Burkholderia pseudomallei by agar dilution method
[2] = test system: Burkholderia pseudomallei; assay: Selectivity ratio of MIC for Burkholderia pseudomallei by agar dilution method to MIC for Burkholderia pseudomallei by Etest method
[3] = test system: Burkholderia pseudomallei; assay: Antimicrobial activity against Burkholderia pseudomallei by Etest method
Escherichia coli = assay: Antimicrobial activity against Escherichia coli ATCC 25922 by agar dilution method
[4] = Burkholderia pseudomallei, read-out: MIC90

Compound	MIC (Pseudomonas aeruginosa)	MIC90 [1]	inhibition zone (IZ) [1]	MIC50 ([1]; Burkholderia pseudomallei)	MIC90 [1, 4]	Ratio [2]	MIC [3]	MIC50 [3]	MIC90 [3]	MIC (Escherichia coli)
C[C@@H](O)[C@H]1C(=O)N2C(C(=O)O)=C(S[C@@H]3CN[C@H](CNS(N)(=O)=O)C3)[C@H](C)[C@H]12 [DORIPENEM]	0.125 µg/mL (≈ 0.297 µM)	<=2 ug ml-1	24 mm	1 µg/mL (≈ 2.38 µM)	1.5 µg/mL (≈ 3.57 µM)	2	0.19 µg/mL (≈ 0.452 µM)	0.5 µg/mL (≈ 1.19 µM)	0.75 µg/mL (≈ 1.78 µM)	0.012 µg/mL (≈ 0.0285 µM)
C[C@@H](O)[C@H]1C(=O)N2C(C(=O)O)=C(SCCNC=N)C[C@H]12 [IMIPENEM ANHYDROUS]				1 µg/mL (≈ 3.34 µM)	1 µg/mL (≈ 3.34 µM)			0.5 µg/mL (≈ 1.67 µM)	1 µg/mL (≈ 3.34 µM)	
C[C@@H](O)[C@H]1C(=O)N2C(C(=O)O)=C(S[C@@H]3CN[C@H](C(=O)N(C)C)C3)[C@H](C)[C@H]12 [MEROPENEM]				3 µg/mL (≈ 7.82 µM)	4 µg/mL (≈ 10.4 µM)			1 µg/mL (≈ 2.61 µM)	2 µg/mL (≈ 5.22 µM)	
